{
  "source": "patent US20120004282A1",
  "about": "“RNA Interference Mediated Inhibition of the Intercellular Adhesion Molecule 1 (ICAM-1) Gene Expression Using Short Interfering Nucleic Acid (siNA)” (Merck Sharp & Dohme Corp,, priority 2009, published 2012)",
  "note": "[invAb] = inverted abasic unit; m = 2'-O-methyl; r = 2'-OH (RNA); f = 2'-fluoro",
  "data": [
    {"test_system": "ICAM-1 mRNA", "assay": "ICAM-1 mRNA knock-down in transfected Calu-1 cells (Taqman RT-PCR)", "assay_type": "cell-based, human", "conditions": "Calu-1 cells, 10 nM siNA, 24 hrs post-transfection, mean ± S.D., relative to non-targeting control", "description": "Calu-1 (human; ATCC cat# HTB-54): Cells were cultured at 37° C. in the presence of 5% CO2 and grown in McCoy's 5a medium supplemented with fetal bovine serum at a final concentration of 10% and 100 μg/mL of streptomycin and 100 U/mL penicillin.\nAll transfections were performed using RNAiMax (Invitrogen Cat# 13778-150) as per the manufacturer's instructions.\nCalu-1 cells were plated in all wells of a tissue-culture treated, 96-well plate at final counts of 5,000 cells/well in 100 μL of appropriate culture media. Cells were cultured for 24 hours after plating at 37° C. in the presence of 5% CO2.\nAfter 24 hours, complexes containing siNA and RNAiMax were created as follows. A solution of RNAiMax diluted 33-fold in OPTI-MEM was prepared. In parallel, solutions of the siNAs for testing were prepared to a final concentration of 120 nM in OPTI-MEM. After incubation of RNAiMax/OPTI-MEM solution at room temperature for 5 min, an equal volume of the siNA solution and the RNAiMax solution were added together for each of the siNAs. […] This solution was incubated at room temperature for 20 minutes. After incubation, 20 uL of the solution was added to each of the relevant wells. The final concentration of siNA in each well was 10 nM and the final volume of RNAiMax in each well was 0.3 uL.\nThe time of incubation with the RNAiMax-siNA complexes was 24 hours, unless otherwise indicated. There was no change in media between the transfection and harvesting of the cells unless otherwise indicated.\nDose response curves were carried out in a similar fashion in 96-well plates, while maintaining a constant amount of RNAiMax in each transfection.\nRNA was extracted from a 96-well plate using the TaqMan® Gene Expression Cells-to-CT™ Kit (Cat# 4399002) with a modified protocol. Briefly, a 60 uL (1 plate) or 110 uL (2 plates) of the Lysis Solution with DNase I was dispensed into each well of the Lysis Buffer Plate (twin.tec full skirt plate). The lysis buffer and stop plates were stored at 4° C. until the cells were washed.\nThe plate was spun at 1100 rpm for 5 minutes. The culture medium was aspirated and discarded from the wells of the culture plate. The lysis was performed automatically using a BioMek FX instrument and method. After the Biomek method was completed, the lysis plate was incubated for 2 min. at room temperature. The lysis plate can be stored for 2 hours at 4° C., or at −20° C. or −80° C. for two months.\nEach well of the reverse transcription plate required 10 uL of 2× reverse transcriptase Buffer, 1 uL of 20× reverse transcription enzyme and 2 uL of nuclease-free water. The reverse transcription master mix was prepared by mixing 2× reverse transcription buffer, 20× reverse transcription enzyme mix, and nuclease-free water. 13 uL of the reverse transcription master mix was dispensed into each well of the reverse transcription plate (semi-skirted). A separate reverse transcription plate was prepared for each cell plate. The plate was loaded onto a Biomek NX or Biomek FX Dual-96 and the Biomek method was run. The program is programmed to automatically added 7 uL of lysate from the cell lysis procedure described above into each well of the reverse transcription plate. The plate is sealed and spun on a centrifuge (1000 rpm for 30 seconds) to settle the contents to the bottom of the reverse transcription plate. The plate is placed in a thermocycler at 37° C. for 60 min, 95° C. for 5 min, and 4° C. until the plate is removed from the thermocycler. Upon removal, if not used immediately, the plate was frozen at −20° C.\nA series of probes and primers were used to detect the various mRNA transcripts of the genes of ICAM-1 and ICAM-2 in human cell lines (see Table 2). All the Taqman probes and primers for the experiments here-in described were supplied as pre-validated sets by Applied Biosystems, Inc., (see Table 2). The assays were performed on an ABI 7900 instrument, according to the manufacturer's instructions. […]", "units": {"% KD Human": "%"}, "values": [
      {"substance": "48723-DC: siNA duplex, ICAM-1 target site 390 (h); sense B cuGGcAAuGcccAGAcAuc TTB; antisense GAUGucuGGGcAuuGccAGUU (sense CUGGCAAUGCCCAGACAUCTT; antisense GAUGUCUGGGCAUUGCCAGUU; sense: DNA at AGT, 2'-fluoro at CU, [invAb] at 5' end, 3' end, backbone not given here; antisense: sugars from the 5' end rrrmfffmmmfmffmffmmmm, backbone not given here)", "% KD Human": "68 ± 12"},
      {"substance": "48725-DC: siNA duplex, ICAM-1 target site 1143 (h); sense B cAGucAGuGuGAccGcAGA TTB; antisense UCUGcGGucAcAcuGAcuGUU (sense CAGUCAGUGUGACCGCAGATT; antisense UCUGCGGUCACACUGACUGUU; sense: DNA at AGT, 2'-fluoro at CU, [invAb] at 5' end, 3' end, backbone not given here; antisense: sugars from the 5' end rrrmfmmffmfmffmmffmmm, backbone not given here)", "% KD Human": "53 ± 19"},
      {"substance": "48717-DC: siNA duplex, ICAM-1 target site 911 (m); sense B GGuGAcuGAGGAGuucGAc TTB; antisense GUCGAAcuccucAGucAccUU (sense GGUGACUGAGGAGUUCGACTT; antisense GUCGAACUCCUCAGUCACCUU; sense: DNA at AGT, 2'-fluoro at CU, [invAb] at 5' end, 3' end, backbone not given here; antisense: sugars from the 5' end rrrmmmffffffmmffmffmm, backbone not given here)", "% KD Human": "−9 ± 17"},
      {"substance": "48702-DC: siNA duplex, ICAM-1 target site 990 (m); sense B AccuuAAcAGucuAcAAcu TTB; antisense AGUuGuAGAcuGuuAAGGuUU (sense ACCUUAACAGUCUACAACUTT; antisense AGUUGUAGACUGUUAAGGUUU; sense: DNA at AGT, 2'-fluoro at CU, [invAb] at 5' end, 3' end, backbone not given here; antisense: sugars from the 5' end rrrfmfmmmffmffmmmmfmm, backbone not given here)", "% KD Human": "19 ± 6"},
      {"substance": "29292-DC: siNA duplex, ICAM-1 target site 863 (h); sense B GccAAuuucucGuGccGcA TTB; antisense UGCGGcAcGAGAAAuuGGcUU (sense GCCAAUUUCUCGUGCCGCATT; antisense UGCGGCACGAGAAAUUGGCUU; sense: DNA at AGT, 2'-fluoro at CU, [invAb] at 5' end, 3' end, backbone not given here; antisense: sugars from the 5' end rrrmmfmfmmmmmmffmmfmm, backbone not given here)", "% KD Human": "76 ± 3"},
      {"substance": "48712-DC: siNA duplex, ICAM-1 target site 1579 (m); sense B uGAuGGcAGccucuuAuGu TTB; antisense ACAuAAGAGGcuGccAucAUU (sense UGAUGGCAGCCUCUUAUGUTT; antisense ACAUAAGAGGCUGCCAUCAUU; sense: DNA at AGT, 2'-fluoro at CU, [invAb] at 5' end, 3' end, backbone not given here; antisense: sugars from the 5' end rrrfmmmmmmffmffmffmmm, backbone not given here)", "% KD Human": "34 ± 27"},
      {"substance": "48707-DC: siNA duplex, ICAM-1 target site 258 (m); sense B AcucAGuGGcuGAAAGAuG TTB; antisense CAUcuuucAGccAcuGAGuUU (sense ACUCAGUGGCUGAAAGAUGTT; antisense CAUCUUUCAGCCACUGAGUUU; sense: DNA at AGT, 2'-fluoro at CU, [invAb] at 5' end, 3' end, backbone not given here; antisense: sugars from the 5' end rrrfffffmmffmffmmmfmm, backbone not given here)", "% KD Human": "46 ± 17"}
    ]}
  ]
}
